PMC12053642, “Oral PRI-002 treatment in patients with MCI or mild AD: a randomized, double-blind phase 1b trial” (Nature Communications, 2025)
Entries after “also recorded” stand apart in the source; their conditions may differ. Square brackets hold non-standard residues; d marks the D form. Peptide text beside a SMILES is read from it.

Experiments:
[1] = Pharmacokinetics of PRI-002 in plasma; details: 300 mg q.d. oral, MCI/mild AD patients
Method: The effect on biomarker was assessed during baseline and after 28 days of medication. CSF collection and blood sampling were performed to determine PRI-002 concentration, which was conducted by Nuvisan (Neu-Ulm, Germany) and to exploratively estimate the effect of PRI-002 on the modulation of Aβ 1-40, Aβ 1-42, Aβ oligomers, total tau (t-tau), and phospho tau (p-tau). Aβ 1-40, Aβ 1-42, t-tau and p-tau181 were measured by immunoassay, using the Lumipulse platform (Fujirebio, Tokyo, Japan) and Aβ oligomers concentrations were determined using sFIDA technology[31]–[33] by attyloid GmbH (Düsseldorf, Germany). The effect of PRI-002 on cognitive and functional performance was measured by repetitively applying the CERAD+ battery and the Clinical Dementia Rating (CDR) at baseline, at Day 28 and additionally at the last visit (Day 56).
Secondary endpoints included the evaluation of pharmacokinetic characteristics of PRI-002 by determination of maximum plasma concentration (Cmax), time to reach maximum plasma concentration (Tmax), half-life (t1/2) calculated from PRI-002 plasma concentrations; and the determination of CSF concentrations of PRI-002.
4 Pharmacokinetic sampling X X
1 Heart rate and blood pressure: Day 1: at pre-dose and 2 hours±15 minutes; Day 14 and 28: at pre-
dose; 2 ECG Day 1: at pre-dose and 2 hours ± 15 minutes; Day 14 and 28: at pre-dose; 3 Safety
MRI was scheduled at screening and within three days after Day 28 and Day 56;4 Pharmacokinetic
sampling Day 1 and Day 28: at pre-dose, 30 minutes ± 15 minutes, 1 hour ± 15 minutes, 2
hours ± 15 minutes, and 4 hours ± 15 minutes.

[2] = tested on: patients with MCI or mild dementia due to AD; test: Adverse events assessment (AE/SAE, MedDRA 23.0), phase 1b trial; details: 300 mg q.d. oral 28 d
Method: During treatment, the frequency of study visits at the trial site was 14 days (Day 1, day 14, Day 28). A last assessment took place at Day 56. At Day 7 and Day 21 additional phone contacts for safety assessments were performed.
For safety assessment during baseline, at Day 14, 28, and 56, laboratory parameters and vital signs were measured, a physical exam was performed, and ECGs were recorded per protocol. […] In addition, nature, frequency, severity, and timing of AEs and SAEs were recorded at day 14, 28, and 56. Standardized AE reports were provided and analysed by the Data Safety and Monitoring Board (DSMB).
Primary endpoints included nature, frequency, severity, and timing of AEs and SAEs; changes in routine laboratory values, ECG, MRI, EEG, and vital signs.

Compound `CC(C)C[C@@H](NC(=O)[C@H](NC(=O)[C@H]1CCCN1)[C@H](C)O)C(=O)N[C@H](Cc1c[nH]cn1)C(=O)N[C@@H](C(=O)N[C@H](Cc1c[nH]cn1)C(=O)N[C@H](CC(N)=O)C(=O)N[C@H](CCCNC(=N)N)C(=O)N[C@H](CCCNC(=N)N)C(=O)N[C@H](CCCNC(=N)N)C(=O)N[C@H](CCCNC(=N)N)C(=O)N[C@H](CCCNC(=N)N)C(N)=O)[C@H](C)O` [PRI-002] (H-[dP][dT][dL][dH][dT][dH][dN][dR][dR][dR][dR][dR]-NH2; N-terminus and C-terminus assumed) has a Cmax ([1]; human, plasma, po, 300 mg, Cmax, plasma, Day 1 (n=9), Median) of 3.03 ng/mL, a Cmax ([1]; human, plasma, po, 300 mg, Cmax, plasma, Day 28 (n=8), Mean ± SD) of 12.6 ± 13.2 ng/mL and a Cmax ([1]; human, plasma, po, 300 mg, Cmax, plasma, Day 28 (n=8), Median) of 6.2 ng/mL. The level at 0.5 h ([1]; human, plasma, po, 300 mg, PRI-002 plasma level, Mean, Day 1, 0.5 h, n=9) was 3.1 ng/mL, the level at 1 h ([1]; human, plasma, po, 300 mg, PRI-002 plasma level, Mean, Day 1, 1 h, n=9) was 3.5 ng/mL and the level at 2 h ([1]; human, plasma, po, 300 mg, PRI-002 plasma level, Mean, Day 1, 2 h, n=9) was 2.6 ng/mL. The level at 4 h ([1]; human, plasma, po, 300 mg, PRI-002 plasma level, Mean, Day 1, 4 h, n=9) was 1.9 ng/mL, the level at 0 h ([1]; human, plasma, po, 300 mg, PRI-002 plasma level, Mean, Day 28, 0 h, n=8) was 2 ng/mL and the level at 0.5 h ([1]; human, plasma, po, 300 mg, PRI-002 plasma level, Mean, Day 28, 0.5 h, n=8) was 12.5 ng/mL. The level at 1 h ([1]; human, plasma, po, 300 mg, PRI-002 plasma level, Mean, Day 28, 1 h, n=8) was 8.4 ng/mL, the level at 2 h ([1]; human, plasma, po, 300 mg, PRI-002 plasma level, Mean, Day 28, 2 h, n=8) was 6.1 ng/mL and the level at 4 h ([1]; human, plasma, po, 300 mg, PRI-002 plasma level, Mean, Day 28, 4 h, n=8) was 4.6 ng/mL. For the same compound, the Tmax ([1]; human, plasma, po, 300 mg, Tmax, plasma, Day 1 (n=9), Mean ± SD) was 1.94 ± 1.61 h, the Tmax ([1]; human, plasma, po, 300 mg, Tmax, plasma, Day 1 (n=9), Median) was 1 h and the Tmax ([1]; human, plasma, po, 300 mg, Tmax, plasma, Day 28 (n=8), Mean ± SD) was 1.1 ± 1.3 h. For the same compound, the “AUC 0-4 (Day28/Day1), mean systemic drug increase” value ([1]; n=8, Mean ± SD) was 2.5 ± 1.3 fold, the “AUC 0-4 hours” value ([1]; plasma, Day 1 (n=9), Max) was 22.0 ng·h/mL and the Cmax ([1]; plasma, Day 1 (n=9), Max) was 10.4 ng/mL. The Tmax ([1]; plasma, Day 1 (n=9), Max) was 4.0 h, the “AUC 0-4 hours” value ([1]; plasma, Day 1 (n=9), Mean ± SD) was 10 ± 7.5 ng·h/mL and the Tmax ([1]; plasma, Day 1 (n=9), Mean ± SD) was “about 2 h”. The “AUC 0-4 hours” value ([1]; plasma, Day 1 (n=9), Min) was 2.0 ng·h/mL, the Cmax ([1]; plasma, Day 1 (n=9), Min) was 0.7 ng/mL and the “AUC 0-4 hours” value ([1]; plasma, Day 28 (n=8), Max) was 70.9 ng·h/mL. For the same compound, the Tmax ([1]; plasma, Day 28 (n=8), Max) was 4.0 h, the Tmax ([1]; plasma, Day 28 (n=8), Mean ± SD) was about 1 h and the “AUC 0-4 hours” value ([1]; plasma, Day 28 (n=8), Min) was 5.9 ng·h/mL. For the same compound, the tolerability ([2]; n=9) was “well tolerated”, the “SAEs or deaths during the trial” value ([2]; n=9, Day 1-56) was “No SAEs or deaths; also recorded: No SAEs” and the “AEs probably or possibly related to study treatment, number” value (“AEs probably or possibly related” for short) ([2]; Mild (grade 1), n=9) was 4. The “AEs probably or possibly related” value ([2]; Moderate (grade 2), n=9) was 2, the “AEs probably or possibly related” value ([2]; Severe (grade 3), n=9) was 0 and the “Gastrointestinal disorders, number of AEs” value ([2]; TOTAL, all grades, n=9) was 1. For the same compound, the “Injury, poisoning and procedural complications, number of AEs” value ([2]; TOTAL, all grades, n=9) was 1, the “Musculoskeletal and connective tissue disorders, number of AEs” value ([2]; TOTAL, all grades, n=9) was 1 and the “Gastrointestinal disorders, number of AEs” value ([2]; grade 1 (Mild), n=9) was 1. For the same compound, the “Injury, poisoning and procedural complications, number of AEs” value ([2]; grade 1 (Mild), n=9) was 1, the “Musculoskeletal and connective tissue disorders, number of AEs” value ([2]; grade 1 (Mild), n=9) was 1 and the “Nervous system disorders, number of AEs” value ([2]; grade 1 (Mild), n=9) was 5. For the same compound, the “Number of subjects with at least one AE” value ([2]; grade 1 (Mild), n=9) was 4, the “Psychiatric disorders, number of AEs” value ([2]; grade 1 (Mild), n=9) was 3 and the “Total number of AEs” value ([2]; grade 1 (Mild), n=9) was 14. For the same compound, the “Nervous system disorders, number of AEs” value ([2]; grade 2 (Moderate), n=9) was 2, the “Number of subjects with at least one AE” value ([2]; grade 2 (Moderate), n=9) was 1 and the “Number of subjects with at least one AE” value ([2]; grade 3 (Severe), n=9) was 0. For the same compound, the “Total number of AEs” value ([2]; grade 3 (Severe), n=9) was 0 and the “subjects with one or more AEs” value ([2]; safety population, n=9) was 56%.
